For 42 molecules, EC50 results are on record in patent US20130345199A1, “1-[M-CARBOXAMIDO(HETERO)ARYL-METHYL]-PIPERIDINE-4-CARBOXAMIDE DERIVATIVES” (Actelion Pharmaceuticals Ltd., priority 2012, published 2013).

T1 sequence (P25106 whole entry): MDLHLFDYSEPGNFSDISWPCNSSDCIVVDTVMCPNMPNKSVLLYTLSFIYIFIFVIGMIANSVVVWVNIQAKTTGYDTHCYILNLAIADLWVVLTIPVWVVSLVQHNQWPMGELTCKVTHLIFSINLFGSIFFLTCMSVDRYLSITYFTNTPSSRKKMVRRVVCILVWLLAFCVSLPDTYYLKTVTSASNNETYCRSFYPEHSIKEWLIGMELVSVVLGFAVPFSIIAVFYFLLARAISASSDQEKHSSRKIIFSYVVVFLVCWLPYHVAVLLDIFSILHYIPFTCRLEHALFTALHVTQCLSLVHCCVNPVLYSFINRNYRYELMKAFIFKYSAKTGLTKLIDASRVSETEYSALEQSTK

This assay concerns the target T1, CXCR7 (Homo sapiens, UniProt P25106).
T1 construct: host or cells: CHO-K1 (PathHunter CXCR7 b-arrestin cell line, stably transfected)
In words: PathHunter CHO-K1 CXCR7 b-arrestin assay (agonistic activity). Format: cell-based. The note with it: PathHunter CHO-K1 CXCR7 b-arrestin cell line, 90 minutes at 37° C. On the procedure: The […] receptor and CXCR7 agonistic activities of the compounds of formula (I) are determined in accordance with the following experimental method.
The assay is using the PathHunter™ CHO-K1 CXCR7 b-arrestin cell line from DiscoverX. The system is based on the Enzyme Fragment Complementation Technology. Two complementing fragments of the b-galactosidase enzyme are expressed within stably transfected cells. The larger portion of b-gal, termed EA for Enzyme Acceptor, is fused to the C-terminus of b-arrestin 2. The smaller fragment, termed ProLink™ tag, is fused to CXCR7 at the C-terminus. Upon activation, b-arrestin is recruited which forces the interaction of ProLink and EA, allowing complementation of the two fragments of b-gal and the formation of a functional enzyme which is capable of hydrolysing the substrate and generating a chemiluminescent signal.
CHO-K1 CXCR7 b-arrestin cells are detached from culture dishes with a cell dissociation buffer (Invitrogen, #13151-014) and collected in growing medium (F12HAMS 90% (v/v)/FCS 10% (v/v), Penicilin/streptomycin 1% (v/v)). 5000 cells per well (in 20 μl) are seeded in a 384 well plate (white-walled, clear bottom; BD Falcon #353274). The plate is incubated at 37° C./5% CO2 for 24 hours. Medium is then replaced by […] (Invitrogen #31985) for 3 to 4 hours. Test compounds are dissolved at 10 mM in DMSO and serially diluted in DMSO to 200× of the final concentration for dose response curves. Compounds are then diluted 1:33.3 in HBSS1X. 5 μl/well of HBSS1X/20 mM HEPES/0.2% BSA are added to the assay plate followed by addition of 5 μl/well of diluted compounds. CXCL12 (Peprotech #300-28A) may be used as a reference agonist. The plate is incubated for 90 minutes at 37° C. 12 μl of detection reagent (Path Hunter Detection Kit, DiscoveRx, #93-0001) is transferred to the assay plate and to the plate is incubated for 1 hour at room temperature. Luminescent signal is read in a microplate reader (FLUOstar Optima, bmg). The calculated EC50 values may fluctuate depending on the daily cellular assay performance. Fluctuations of this kind are known to those skilled in the art.
As a reminder, the EC50 is the midpoint of the concentration-response curve. A high value points to a less potent agent. `CC(C)(CO)NC(=O)C1CCN(Cc2cccc(NC(=O)c3cccc(C(F)(F)F)n3)c2)CC1` [Example 2.091] gave an EC50 of 6 nM.

As to `CNC(=O)C1CCN(Cc2cccc(NC(=O)c3ccc(Cl)cc3)c2)CC1` [Example 2.002], the EC50 was found to be 3 nM.

`COc1cccc(CNC(=O)C2CCN(Cc3cccc(NC(=O)c4ccc(Cl)cc4)c3)CC2)c1` [Example 2.028] returned an EC50 of 394 nM.

The molecule `O=C(Nc1cccc(CN2CCC(F)(C(=O)NC3CCCCC3)CC2)c1)c1cccc(C(F)(F)F)n1` [Example 4.008, 6-Trifluoromethyl-pyridine-2-carboxylic acid [3-(4-cyclohexylcarbamoyl-4-fluoro-piperidin-1-ylmethyl)-phenyl]-amide] returned a concentration for a half-maximal effect (EC50) of 71 nM.

For `Cc1cncc(C(=O)Nc2cccc(CN3CCC(C(=O)NC4CC4)CC3)c2)c1` [Example 2.037], a half-maximal response (EC50) required 82 nM.

The molecule `COc1cncc(C(=O)Nc2cccc(CN3CCC(C(=O)NC4CCCC4)CC3)c2)c1` [Example 4.013, N-[3-(4-Cyclopentylcarbamoyl-piperidin-1-ylmethyl)-phenyl]-5-methoxy-nicotinamide] came in with an EC50 of 9 nM.

Consider `O=C(NC1CCCCC1)C1CCN(Cc2cccc(NC(=O)[C@@H]3C[C@@H]4CC[C@H]3C4)c2)CC1` (racemic) [Example 1.018, Rac-1-{3-[((1S,2R,4R)-Bicyclo[2.2.1]heptane-2-carbonyl)-amino]-benzyl}-piperidine-4-carboxylic acid cyclohexylamide], for which the concentration giving a half-maximal response (EC50) was found to be 5 nM.

Molecule `Cc1cncc(C(=O)Nc2cccc(CN3CCC(C(=O)N4CC[C@@H](F)C4)CC3)c2)c1` [Example 2.052] returned an EC50 of 121 nM.

As to `Cc1cncc(C(=O)Nc2cccc(CN3CCC(C(=O)N4CCC(C)(C)C4)CC3)c2)c1` [Example 2.061], the concentration giving a half-maximal response (EC50) turned out to be 64 nM.

As to `CCNC(=O)C1CCN(Cc2cccc(NC(=O)c3cccc(C(F)(F)F)n3)c2)CC1` [Example 2.069], the concentration giving a half-maximal response (EC50) came out at 4 nM.

In the case of `O=C(Nc1cccc(CN2CCC(C(=O)NC3CCCc4ccccc43)CC2)c1)c1ccc(Cl)cc1` (racemic) [Example 2.019], it took 40 nM to reach a half-maximal effect (EC50).

As for `Cc1cncc(C(=O)Nc2cccc(CN3CCC(C(=O)N4C(C)CCC4C)CC3)c2)c1` (stereo not drawn) [Example 2.051], the EC50 amounted to 96 nM.

With `O=C(Nc1cccc(CN2CCC(C(=O)NC3CCC3)CC2)c1)c1ccc(Cl)cc1` [Example 2.007], the concentration giving a half-maximal response (EC50) stood at 1 nM.

`O=C(Nc1ccc(F)c(CN2CCC(C(=O)NC3CCCCC3)CC2)c1)c1cccc(C(F)(F)F)n1` [Example 4.016, 6-Trifluoromethyl-pyridine-2-carboxylic acid [3-(4-cyclohexylcarbamoyl-piperidin-1-ylmethyl)-4-fluoro-phenyl]-amide] yielded an EC50 of 3 nM.

In turn, `O=C(Nc1cccc(CN2CCC(C(=O)NC3CCc4ccccc43)CC2)c1)c1ccc(Cl)cc1` (racemic) [Example 2.020] displayed an EC50 of 21 nM.

In turn, `O=C(Nc1cccc(CN2CCC(C(=O)NCC3CCCC3)CC2)c1)c1ccc(Cl)cc1` [Example 2.010] gave a concentration for a half-maximal effect (EC50) of 4 nM.

As for `CCC(C)(C)NC(=O)C1CCN(Cc2cccc(NC(=O)c3cncc(C)c3)c2)CC1` [Example 2.059], the concentration giving a half-maximal response (EC50) came to 3 nM.

As to `Cc1cncc(C(=O)Nc2cc(CN3CCC(C(=O)NC(C)(C)C)CC3)cs2)c1` [Example 3.012, N-[4-(4-tert-Butylcarbamoyl-piperidin-1-ylmethyl)-thiophen-2-yl]-5-methyl-nicotinamide], a half-maximal effect (EC50) was put at 44 nM.

In turn, `COc1ccc(CNC(=O)C2CCN(Cc3cccc(NC(=O)c4ccc(Cl)cc4)c3)CC2)cc1` [Example 2.030] came in with an EC50 of 832 nM.

In the case of `Cc1cncc(C(=O)Nc2cccc(CN3CCC(C(=O)NC4CCC(F)(F)CC4)CC3)c2)c1` [Example 2.044], the EC50 came to 27 nM.

For `CCCCNC(=O)C1CCN(Cc2cccc(NC(=O)c3cccc(C(F)(F)F)n3)c2)CC1` [Example 2.095], the EC50 came to 2 nM.

`Cc1cncc(C(=O)Nc2cccc(CN3CCC(C(=O)N(C)CC(C)C)CC3)c2)c1` [Example 2.057] came in with an EC50 of 8 nM.

`Cc1cncc(C(=O)Nc2cccc(CN3CCC(C(=O)N4CCCCC4)CC3)c2)c1` [Example 2.046]: the concentration for a half-maximal effect (EC50) stood at 6 nM.

Molecule `CC(C)(C)CCNC(=O)C1CCN(Cc2cccc(NC(=O)c3cccc(C(F)(F)F)n3)c2)CC1` [Example 2.082] registered an EC50 of 121 nM.

Take `CC(NC(=O)C1CCN(Cc2cccc(NC(=O)c3ccc(Cl)cc3)c2)CC1)c1cccc2ccccc12` (racemic) [Example 2.018]: the EC50 worked out at 349 nM.

`O=C(Nc1cccc(CN2CCC(C(=O)NCc3ccccc3)CC2)c1)c1ccc(Cl)cc1` [Example 2.035] displayed an EC50 of 45 nM.

`COc1cncc(C(=O)Nc2cccc(CN3CCC(C(=O)N(C)CC(C)C)CC3)c2)c1` [Example 4.015, N-{3-[4-(Isobutyl-methyl-carbamoyl)-piperidin-1-ylmethyl]-phenyl}-5-methoxy-nicotinamide] returned a 50% effective concentration (EC50) of 19 nM.

For `O=C(Nc1cccc(CN2CCC(C(=O)NCc3cccc(Cl)c3)CC2)c1)c1ccc(Cl)cc1` [Example 2.027], it took 442 nM to reach a half-maximal effect (EC50).

With `Cc1cncc(C(=O)Nc2cccc(CN3CCC(C(=O)N(C)C)CC3)c2)c1` [Example 2.055], the response was half-maximal at 60 nM (EC50).

The molecule `CCN(CC)C(=O)C1CCN(Cc2cccc(NC(=O)c3ccc(Cl)cc3)c2)CC1` [Example 2.009] yielded a half-maximal effective concentration (EC50) of 1 nM.

`CC(C)(C)NC(=O)C1(F)CCN(Cc2cccc(NC(=O)c3cccc(C(F)(F)F)n3)c2)CC1` [Example 4.009, 6-Trifluoromethyl-pyridine-2-carboxylic acid [3-(4-tert-butylcarbamoyl-4-fluoro-piperidin-1-ylmethyl)-phenyl]-amide] yielded an EC50 of 20 nM.

`O=C(Nc1cccc(CN2CCC(C(=O)NC3CCCCC3)CC2)c1)c1cccs1` [Example 2.075] gave an EC50 of 7 nM.

In turn, `O=C(Nc1cccc(CN2CCC(C(=O)NC3CCCC3)CC2)c1)c1ccc(F)c[n+]1[O-]` [Example 4.006, 5-Fluoro-1-oxy-pyridine-2-carboxylic acid [3-(4-cyclopentylcarbamoyl-piperidin-1-ylmethyl)-phenyl]-amide] registered an EC50 of 1 nM.

`CCC(CO)NC(=O)C1CCN(Cc2cccc(NC(=O)c3cccc(C(F)(F)F)n3)c2)CC1` (stereo not drawn) [Example 2.065]: a half-maximal response (EC50) required 26 nM.

The molecule `O=C(Nc1cccc(CN2CCC(C(=O)NCc3nccs3)CC2)c1)c1ccc(Cl)cc1` [Example 2.024] registered an EC50 of 32 nM.

In the case of `CNC(=O)C1CCN(Cc2cccc(NC(=O)c3cccs3)c2)CC1` [Example 2.072], the EC50 was found to be 188 nM.

As to `Cc1cncc(C(=O)Nc2cccc(CN3CCC(F)(C(=O)NC4CCCCC4)CC3)c2)c1` [Example 4.001, N-[3-(4-Cyclohexylcarbamoyl-4-fluoro-piperidin-1-ylmethyl)-phenyl]-5-methyl-nicotinamide], the midpoint of the response, the EC50, lay at 46 nM.

With `CC1(C(=O)NC2CCCCC2)CCN(Cc2cccc(NC(=O)c3cccc(C(F)(F)F)n3)c2)CC1` [Example 4.010, 6-Trifluoromethyl-pyridine-2-carboxylic acid [3-(4-cyclohexylcarbamoyl-4-methyl-piperidin-1-ylmethyl)-phenyl]-amide], a half-maximal effect (EC50) was put at 57 nM.

On to `CC(C)(C)NC(=O)C1CCN(Cc2cccc(NC(=O)c3ccc(F)c[n+]3[O-])c2)CC1` [Example 4.007, 5-Fluoro-1-oxy-pyridine-2-carboxylic acid [3-(4-tert-butylcarbamoyl-piperidin-1-ylmethyl)-phenyl]-amide], for which a half-maximal response (EC50) required 3 nM.

The molecule `CC(C)(C)NC(=O)C1CCN(Cc2csc(NC(=O)c3ccc(F)cc3)c2)CC1` [Example 3.008, 1-[5-(4-Fluoro-benzoylamino)-thiophen-3-ylmethyl]-piperidine-4-carboxylic acid tert-butylamide] gave an EC50 of 3 nM.

In turn, `O=C(Nc1cccc(CN2CCC(C(=O)NCC3CCCCC3)CC2)c1)c1ccc(Cl)cc1` [Example 2.015] returned an EC50 of 46 nM.

Molecule `CC(C)(C)NC(=O)C1CCN(Cc2cccc(NC(=O)c3ccc(Cl)cc3)c2)CC1` [Example 2.004] displayed a 50% effective concentration (EC50) of 1 nM.
